Measured values reported in patent EP4752152A1, “STEROID COMPOUND, AND PREPARATION METHOD THEREFOR AND USE THEREOF” (Cholesgen (Shanghai) Co.Ltd., priority 2023, dated 2025).

Tested on: SREBP pathway
Assay: SREBP luciferase reporter gene system (SRE-luciferase assay)
Type: cell-based, human
Conditions: Homo sapiens, Huh-7, 16 h, Huh-7/SRE-luc cells, sterol-deficient medium, 0.01-10 µM
How it was run: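 Readout was SRE-driven luciferase normalised to GFP fluorescence in lysates of stably transfected Huh-7/SRE-luc hepatoma cells. Compounds (0.01, 0.03, 0.1, 0.3, 1.0, 3.0, 10 µM; DMSO control) were applied for 16 h in sterol-depleted medium with 2 µM lovastatin and 10 µM mevalonate; IC50 from variable-slope fit.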

SMILES	IC50 [µM]
C[C@H](CCCC(O)c1c(F)ccnc1F)[C@H]1CC[C@H]2C3=C(F)C[C@H]4[C@@H](O)[C@@H](O)CC[C@]4(C)[C@H]3CC[C@]12C (stereo partly drawn) [Compound 145, (1R,3aR,5aR,6R,7S,9aR,9bR,11aR)-1-[(2R)-6-(2,4-difluoropyridin-3-yl)-6-hydroxyhexan-2-yl]-4-fluoro-9a,11a-dimethyl-2,3,3a,5,5a,6,7,8,9,9a,9b,10,11,11a-tetradecahydro-1H-cyclopenta[1,2-a]phenanthrene-6,7-diol]	0.35
C[C@H](CCCC(O)c1c(F)ccnc1F)[C@H]1CC[C@H]2[C@H]3[C@H](CC[C@]12C)[C@@]1(C)CC[C@H](O)[C@H](O)[C@@H]1CC3(F)F (stereo partly drawn) [Compound 146, (1R,3aS,3bS,5aR,6R,7S,9aR,9bS,11aR)-1-[(2R)-6-(2,4-difluoropyridin-3-yl)-6-hydroxyhexan-2-yl]-4,4-difluoro-9a,11a-dimethylhexadecahydro-1H-cyclopenta[1,2-a]phenanthrene-6,7-diol]	0.16
C[C@H](CCCC(O)c1ccc(F)nc1F)[C@H]1CC[C@H]2C3=C(F)C[C@H]4[C@@H](O)[C@@H](O)CC[C@]4(C)[C@H]3CC[C@]12C (stereo partly drawn) [Compound 147, (1R,3aR,5aR,6R,7S,9aR,9bR,11aR)-1-[(2R)-6-(2,6-difluoropyridin-3-yl)-6-hydroxyhexan-2-yl]-4-fluoro-9a,11a-dimethyl-2,3,3a,5,5a,6,7,8,9,9a,9b,10,11,11a-tetradecahydro-1H-cyclopenta[1,2-a]phenanthrene-6,7-diol]	0.19
C[C@H](CCCC(O)c1ccc(F)nc1F)[C@H]1CC[C@H]2[C@H]3[C@H](CC[C@]12C)[C@@]1(C)CC[C@H](O)[C@H](O)[C@@H]1CC3(F)F (stereo partly drawn) [Compound 148, (1R,3aS,3bS,5aR,6R,7S,9aR,9bS,11aR)-1-[(2R)-6-(2,6-difluoropyridin-3-yl)-6-hydroxyhexan-2-yl]-4,4-difluoro-9a,11a-dimethylhexadecahydro-1H-cyclopenta[1,2-a]phenanthrene-6,7-diol]	0.08
COc1ccnc(F)c1C(O)CCC[C@@H](C)[C@H]1CC[C@H]2[C@H]3[C@H](CC[C@]12C)[C@@]1(C)CC[C@H](O)[C@H](O)[C@@H]1CC3(F)F (stereo partly drawn) [Compound 149, (1R,3aS,3bS,5aR,6R,7S,9aR,9bS,11aR)-4,4-difluoro-1-[(2R)-6-(2-fluoro-4-methoxypyridin-3-yl)-6-hydroxyhexan-2-yl]-9a,11a-dimethylhexadecahydro-1H-cyclopenta[1,2-a]phenanthrene-6,7-diol]	0.14
COc1ccnc(F)c1C(O)CCC[C@@H](C)[C@H]1CC[C@H]2C3=C(F)C[C@H]4[C@@H](O)[C@@H](O)CC[C@]4(C)[C@H]3CC[C@]12C (stereo partly drawn) [Compound 150, (1R,3aR,5aR,6R,7S,9aR,9bR,11aR)-4-fluoro-1-[(2R)-6-(2-fluoro-4-methoxypyridin-3-yl)-6-hydroxyhexan-2-yl]-9a,11a-dimethyl-2,3,3a,5,5a,6,7,8,9,9a,9b,10,11,11a-tetradecahydro-1H-cyclopenta[1,2-a]phenanthrene-6,7-diol]	0.19
COc1ncc(F)cc1C(O)CCC[C@@H](C)[C@H]1CC[C@H]2[C@H]3[C@H](CC[C@]12C)[C@@]1(C)CC[C@H](O)[C@H](O)[C@@H]1CC3(F)F (stereo partly drawn) [Compound 151, (1R,3aS,3bS,5aR,6R,7S,9aR,9bS,11aR)-4,4-difluoro-1-[(2R)-6-(5-fluoro-2-methoxypyridin-3-yl)-6-hydroxyhexan-2-yl]-9a,11a-dimethylhexadecahydro-1H-cyclopenta[1,2-a]phenanthrene-6,7-diol]	0.18
COc1ncncc1C(O)CCC[C@@H](C)[C@H]1CC[C@H]2[C@H]3[C@H](CC[C@]12C)[C@@]1(C)CC[C@H](O)[C@H](O)[C@@H]1CC3(F)F (stereo partly drawn) [Compound 152, (1R,3aS,3bS,5aR,6R,7S,9aR,9bS,11aR)-4,4-difluoro-1-[(2R)-6-hydroxy-6-(4-methoxypyrimidin-5-yl)hexan-2-yl]-9a,11a-dimethylhexadecahydro-1H-cyclopenta[1,2-a]phenanthrene-6,7-diol]	0.14
COc1nccnc1[C@H](O)CCC[C@@H](C)[C@H]1CC[C@H]2[C@H]3[C@H](CC[C@]12C)[C@@]1(C)CC[C@H](O)[C@H](O)[C@@H]1CC3(F)F [Compound 154, (1R,3aS,3bS,5aR,6R,7S,9aR,9bS,11aR)-4,4-difluoro-1-[(2R,6R)-6-hydroxy-6-(3-methoxypyrazin-2-yl)hexan-2-yl]-9a,11a-dimethylhexadecahydro-1H-cyclopenta[1,2-a]phenanthrene-6,7-diol]	0.242
COc1nccnc1[C@@H](O)CCC[C@@H](C)[C@H]1CC[C@H]2[C@H]3[C@H](CC[C@]12C)[C@@]1(C)CC[C@H](O)[C@H](O)[C@@H]1CC3(F)F [Compound 155, (1R,3aS,3bS,5aR,6R,7S,9aR,9bS,11aR)-4,4-difluoro-1-[(2R,6S)-6-hydroxy-6-(3-methoxypyrazin-2-yl)hexan-2-yl]-9a,11a-dimethylhexadecahydro-1H-cyclopenta[1,2-a]phenanthrene-6,7-diol]	0.188
COc1cc(F)ccc1C(N)CCC[C@@H](C)[C@H]1CC[C@H]2[C@H]3[C@H](CC[C@]12C)[C@@]1(C)CC[C@H](O)[C@H](O)[C@@H]1CC3(F)F (stereo partly drawn) [Compound 156, (1R,3aS,3bS,5aR,6R,7S,9aR,9bS,11aR)-1-[(2R)-6-amino-6-(4-fluoro-2-methoxyphenyl)hexan-2-yl]-4,4-difluoro-9a,11a-dimethylhexadecahydro-1H-cyclopenta[1,2-a]phenanthrene-6,7-diol]	1.32
COc1cc(F)ccc1/C(CCC[C@@H](C)[C@H]1CC[C@H]2[C@H]3[C@H](CC[C@]12C)[C@@]1(C)CC[C@H](O)[C@H](O)[C@@H]1CC3(F)F)=N/O [Compound 157, [(1E,5R)-5-[(1R,3aS,3bS,5aR,6R,7S,9aR,9bS,11aR)-4,4-difluoro-6,7-dihydroxy-9a,11a-dimethylhexadecahydro-1H-cyclopenta[1,2-a]phenanthren-1-yl]-1-(4-fluoro-2-methoxyphenyl)hexylidene]hydroxylamine]	0.053
C[C@H](CCCC(O)c1c(F)cccc1F)[C@H]1CC[C@H]2[C@H]3[C@H](CC[C@]12C)[C@@]1(C)CC[C@H](O)[C@H](O)[C@@H]1CC3(F)F (stereo partly drawn) [Compound 161, (1R,3aS,3bS,5aR,6R,7 S,9aR,9bS,11aR)-1-[(2R)-6-(2,6-Difluorophenyl)-6-hydroxyhexan-2-yl]-4,4-difluoro-9a,11a-dimethylhexadecahyd ro-1H-cyclopenta[1,2-a]phenanthrene-6,7-diol]	0.1
COc1ccc(F)cc1[C@@H](O)CCC[C@@H](C)[C@H]1CC[C@H]2[C@H]3[C@H](CC[C@]12C)[C@@]1(C)CC[C@H](O)[C@H](O)[C@@H]1CC3(F)F [Compound 168, (1R,3aS,3bS,5aR,6R,7S,9aR,9bS,11aR)-4,4-difluoro-1-[(2R,6S)-6-(5-fluoro-2-methoxyphenyl)-6-hydroxyhexan-2-yl]-9a,11a-dimethylhexadecahydro-1H-cyclopenta[1,2-a]phenanthrene-6,7-diol]	0.092
COc1ccc(F)cc1[C@H](O)CCC[C@@H](C)[C@H]1CC[C@H]2[C@H]3[C@H](CC[C@]12C)[C@@]1(C)CC[C@H](O)[C@H](O)[C@@H]1CC3(F)F [Compound 169, (1R,3aS,3bS,5aR,6R,7S,9aR,9bS,11aR)-4,4-difluoro-1-[(2R,6R)-6-(5-fluoro-2-methoxyphenyl)-6-hydroxyhexan-2-yl]-9a,11a-dimethylhexadecahydro-1H-cyclopenta[1,2-a]phenanthrene-6,7-diol]	0.075
COc1ccc(F)c(C(O)CCC[C@@H](C)[C@H]2CC[C@H]3C4=C(F)C[C@H]5[C@@H](O)[C@@H](O)CC[C@]5(C)[C@H]4CC[C@]23C)c1 (stereo partly drawn) [Compound 174, (1R,3aR,5aR,6R,7S,9aR,9bR,11aR)-4-fluoro-1-[(2R)-6-(2-fluoro-5-methoxyphenyl)-6-hydroxyhexan-2-yl]-9a,11a-dimethyl-2,3,3a,5,5a,6,7,8,9,9a,9b,10,11,11a-tetradecahydro-1H-cyclopenta[1,2-a]phenanthrene-6,7-diol]	0.148
COc1cc(F)c(C(O)CCC[C@@H](C)[C@H]2CC[C@H]3[C@H]4[C@H](CC[C@]23C)[C@@]2(C)CC[C@H](O)[C@H](O)[C@@H]2CC4(F)F)c(OC)c1 (stereo partly drawn) [Compound 182, (1R,3aS,3bS,5aR,6R,7 S,9aR,9bS,11aR)-4,4-Difluoro-1-[(2R)-6-(2-fluoro-4,6-dimethoxyphenyl)-6-hydroxyhexan-2-yl]-9a,11a-dimethylhexadecahydro-1H-cyclopenta[1,2-a]phenanthrene-6,7-diol]	0.121
COc1ccc(C(O)CCC[C@@H](C)[C@H]2CC[C@H]3[C@H]4[C@H](CC[C@]23C)[C@@]2(C)CC[C@H](O)[C@H](O)[C@@H]2CC4(F)F)c(OC)c1 (stereo partly drawn) [Compound 183, (1R,3aS,3bS,5aR,6R,7 S,9aR,9bS,11aR)-1-[(2R)-6-(2,4-Dimethoxyphenyl)-6-hydroxyhexan-2-yl]-4,4-difluoro-9a,11a-dimethylhexadecahydro-1H-cyclopenta[1,2-a]phenanthrene-6,7-diol]	0.141
C[C@H](CCCC(O)c1cccc2cnn(C)c12)[C@H]1CC[C@H]2[C@H]3[C@H](CC[C@]12C)[C@@]1(C)CC[C@H](O)[C@H](O)[C@@H]1CC3(F)F (stereo partly drawn) [Compound 207, (1R,3aS,3bS,5aR,6R,7 S,9aR,9bS,11aR)-4,4-Difluoro-1-[(2R)-6-hydroxy-6-(1-methylindazol-7-yl)hexan-2-yl]-9a,11a-dimethylhexadecahydro-1H-cyclopenta[1,2-a]phenanthrene-6,7-diol]	0.206
C[C@H](CCCC(O)C1CC2CCC1C2)[C@H]1CC[C@H]2[C@H]3[C@H](CC[C@]12C)[C@@]1(C)CC[C@H](O)[C@H](O)[C@@H]1CC3(F)F (stereo partly drawn) [Compound 213, (1R,3aS,3bS,5aR,6R,7 S,9aR,9bS,11aR)-1-[(2R)-6-(Bicyclo[2.2.1]heptan-2-yl)-6-hydroxyhexan-2-yl]-4,4-difluoro-9a,11a-dimethylhexadecahyd ro-1H-cyclopenta[1,2-a]phenanthrene-6,7-diol]	0.569
